The record followed here is ChEMBL document CHEMBL1155842, “Imidazole piperazines: SAR and development of a potent class of cyclin-dependent kinase inhibitors with a novel binding mode” (Bioorg Med Chem Lett, 2008).

Data set [1] relates to MCF7. Briefly: cells. The settings on record: Homo sapiens, MCF7, 48 h.
Description: Antiproliferative activity against human MCF7 cells after 48 hrs
Data set [2] is described as follows: Plasma clearance in rat. The class given is ADME, organism-based.
Data set [3] can be described thus: Volume of distribution at steady state in rat. Format: ADME, organism-based. The settings on record: in vivo, read-out: Vdss.
Data set [4] in a line: Oral bioavailability in dog. Format: ADME, organism-based, Canis lupus familiaris. The settings on record: in vivo.
Data set [5] in a line: Plasma clearance in dog. The class given is ADME, organism-based, Canis lupus familiaris.
Data set [6] deals with SW-620. Nature of the data set: Antitumor activity against human SW620 cells xenografted nude mouse assessed as tumor growth inhibition at 7.5 mg/kg, po once daily for 28 days. The settings on record: SW-620, po, 672 h, read-out: INH. For orientation: Xenograft models place foreign cells or tissue in a host animal.
The nature of data set [7]: Volume of distribution at steady state in dog. Format: ADME, organism-based, Canis lupus familiaris. The settings on record: in vivo, read-out: Vdss.
A short description of data set [8]: AUC in rat at 2 mg/kg, po. The class given is ADME, organism-based. Also on record: dose 2 mg/kg, route oral. The settings on record: plasma.
Data set [9] can be described thus: Oral bioavailability in rat. Format: ADME, organism-based. The settings on record: in vivo.
Data set [10] in a line: Protein binding in rat plasma assessed as unbound fraction. The class given is ADME, cell-free.
The target of data set [11] is Voltage-gated inwardly rectifying potassium channel KCNH2 (Homo sapiens, UniProt Q12809).
Voltage-gated inwardly rectifying potassium channel KCNH2, sequence (Q12809 whole entry): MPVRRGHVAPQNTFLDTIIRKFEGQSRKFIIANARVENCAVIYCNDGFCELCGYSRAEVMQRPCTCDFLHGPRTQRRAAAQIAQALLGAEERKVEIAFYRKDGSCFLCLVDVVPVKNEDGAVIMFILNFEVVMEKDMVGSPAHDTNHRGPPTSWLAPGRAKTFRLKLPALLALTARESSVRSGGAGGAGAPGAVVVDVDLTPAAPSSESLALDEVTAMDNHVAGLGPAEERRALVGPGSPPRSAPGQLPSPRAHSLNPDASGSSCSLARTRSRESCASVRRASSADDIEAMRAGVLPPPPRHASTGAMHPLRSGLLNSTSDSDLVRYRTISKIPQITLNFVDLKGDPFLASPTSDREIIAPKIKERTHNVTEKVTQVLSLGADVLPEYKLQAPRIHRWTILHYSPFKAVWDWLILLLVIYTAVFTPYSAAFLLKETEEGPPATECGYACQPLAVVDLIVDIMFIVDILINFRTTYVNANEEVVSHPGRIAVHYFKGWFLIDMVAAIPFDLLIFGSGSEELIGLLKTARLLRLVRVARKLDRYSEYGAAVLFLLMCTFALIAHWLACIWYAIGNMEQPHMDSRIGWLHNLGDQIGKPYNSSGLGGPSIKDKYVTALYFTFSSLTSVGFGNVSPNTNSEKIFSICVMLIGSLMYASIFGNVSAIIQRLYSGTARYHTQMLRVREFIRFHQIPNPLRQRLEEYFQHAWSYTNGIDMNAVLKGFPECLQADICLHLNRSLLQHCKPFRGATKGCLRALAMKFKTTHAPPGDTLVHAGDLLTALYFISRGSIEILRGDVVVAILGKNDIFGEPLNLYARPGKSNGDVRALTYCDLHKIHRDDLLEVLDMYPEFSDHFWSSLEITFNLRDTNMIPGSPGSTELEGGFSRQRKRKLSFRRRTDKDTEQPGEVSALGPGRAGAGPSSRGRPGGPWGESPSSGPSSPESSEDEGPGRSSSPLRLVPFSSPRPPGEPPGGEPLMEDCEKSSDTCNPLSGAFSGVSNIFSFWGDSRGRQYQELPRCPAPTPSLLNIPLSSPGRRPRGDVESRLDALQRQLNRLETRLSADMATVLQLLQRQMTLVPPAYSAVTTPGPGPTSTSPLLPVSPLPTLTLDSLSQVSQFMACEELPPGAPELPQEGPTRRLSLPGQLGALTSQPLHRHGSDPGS
The target in data set [12] is Cyclin-dependent kinase 2 (Homo sapiens, UniProt P24941). Nature of the data set: Inhibition of CDK2/Cyclin E.
Data set [13] is described as follows: Aqueous solubility at pH 7.4. The settings on record: buffer.
A short description of data set [14]: Lipophilicity Log D at pH 7.4. The settings on record: buffer.
Data set [15] deals with SW-620. Nature of the data set: animal or person. The settings on record: Mus musculus, SW-620, po, 672 h, read-out: INH.
Description: Antitumor activity against human SW620 cells xenografted nude mouse assessed as tumor growth inhibition at 12.5 mg/kg, po once daily for 28 days

Each structure is given as a SMILES string. Converted amounts (≈) assume the structure as drawn. Bounds are passed on as bounds.

By IC50 is commonly meant the concentration at which inhibition is half-maximal. A higher IC50 goes with a need for much substance. In data set [1], `COCCNS(=O)(=O)c1ccc(Nc2nccc(-c3cnc(C)n3C(C)C)n2)cc1` returned an IC50 of 45 nM.
As usually defined, the clearance is the rate of elimination divided by the concentration. A high value points to efficient removal. In general, bioavailability refers to dose-corrected exposure relative to a reference, in per cent. One may read the AUC as concentration integrated over time. For orientation: fraction unbound means the share of the substance not bound to proteins or other matrix. Regarding `Cc1ncc(-c2ccnc(Nc3ccc(N4CCN(C(=O)CO)CC4)cc3)n2)n1C(C)C`, the clearance is 15 mL/min/kg in data set [2] and 19 mL/min/kg in data set [5]. Also, the Vd in data set [3] was determined as 2.5 L/kg; in [7], 3.4 L/kg. Moreover, the bioavailability in data set [4] amounted to 79%; in data set [9], 59%. In addition, the inhibition in vivo at 7.5 mg/kg in [6] amounted to 80%. The AUC in data set [8] came out at 0.4 µM·h. Also, in data set [10], the fraction unbound came to 0.22.
The solubility is the concentration that dissolves in the medium under given conditions. Low values mean little dissolved substance, high ones much dissolved substance. In general, logD refers to the decadic logarithm of the distribution of all forms, ionised or not, between an organic phase and buffer at a given pH. Take `Cc1ncc(-c2nc(Nc3ccc(N4CCOCC4)cc3)ncc2F)n1C(C)C`: the IC50 in data set [11] was found to be 11000 nM; in data set [1], 110 nM; in [12] it was 8 nM. Moreover, the clearance in data set [2] was determined as 26 mL/min/kg; in data set [5], 140 mL/min/kg. The Vd came to 1.3 L/kg in data set [3] and 2.9 L/kg in data set [7]. Besides, the bioavailability in data set [4] turned out to be 3%; in data set [9] it was 34%. The solubility in data set [13] worked out at 120 µM (≈ 47.6 µg/mL). The compound also had a logD in data set [14] of 3. In [8], this compound yielded an AUC of 0.19 µM·h.
On to `Cc1ncc(-c2nc(Nc3ccc(N4CCC[C@H]4C(=O)N(C)C)cc3)ncc2F)n1C(C)C`, for which half-maximal inhibition in [12] (IC50) required 46 nM.
On to `COc1ccc(Nc2nccc(-c3cnc(C)n3C(C)C)n2)cc1`, for which the IC50 in [1] turned out to be 72 nM; in data set [12], 8 nM.
As for `CC(=O)N1CCN(c2ccc(Nc3nccc(-c4cnc(C)n4C(C)C)n3)cc2)CC1`, the IC50 was 145 nM in data set [1] and under 3 nM in [12].
As for `Cc1ncc(-c2ccnc(Nc3ccc(N4CCN(C(=O)[C@H](C)O)CC4)cc3)n2)n1C(C)C`, the IC50 in [11] is over 24000 nM; in data set [1], 220 nM; in [12] it was 17 nM. The compound also showed an AUC in data set [8] of 0.16 µM·h.
On to `Cc1ncc(-c2ccnc(Nc3ccc(N(C)C)cc3)n2)n1C(C)C`, for which the IC50 is 68 nM in [1] and 24 nM in [12].
For the compound `CC(=O)N[C@@H]1CCN(c2ccc(Nc3ncc(F)c(-c4cnc(C)n4C(C)C)n3)cc2)C1`, the half-maximal inhibitory concentration (IC50) is 140 nM in data set [1] and over 0.3 nM in [12].
Consider `Cc1ncc(-c2ccnc(Nc3ccc(N4CCN(S(C)(=O)=O)CC4)cc3)n2)n1C(C)C`, for which the IC50 was 5500 nM in [11], 72 nM in data set [1] and under 3 nM in data set [12]. The same compound showed a solubility in data set [13] of 9 µM (≈ 4.1 µg/mL). The same compound came in with a logD in data set [14] of 2.6. This compound also had an AUC in data set [8] of 0.08 µM·h. The fraction unbound in data set [10] was determined as 0.08.
With `Cc1ncc(-c2nc(Nc3ccc(N4CCN(C(=O)CO)CC4)cc3)ncc2F)n1C(C)C`, the values for the IC50 in [1] and in [12] were 75 nM and 6 nM, respectively. Further, the clearance in [2] was 16 mL/min/kg; in data set [5], 24 mL/min/kg. Further, the Vd was found to be 1 L/kg in [3] and 3.5 L/kg in [7]. Further, the bioavailability in data set [4] stood at 31%; in data set [9], 67%. Besides, the solubility in [13] came to 160 µM (≈ 72.6 µg/mL). In data set [14], this compound displayed a logD of 2.2. This compound also showed an AUC in data set [8] of 0.17 µM·h. Besides, the inhibition in vivo at 12.5 mg/kg in data set [15] was determined as 89%.
`Cc1ncc(-c2ccnc(Nc3ccc(F)cc3)n2)n1C(C)C`: the IC50 was 100 nM in data set [1] and 3 nM in data set [12].
`CCN(CC)CC(=O)N1CCN(c2ccc(Nc3nccc(-c4cnc(C)n4C(C)C)n3)cc2)CC1`: the IC50 in data set [1] is under 22 nM. Further, the solubility in data set [13] is over 3700 µM.
Turning to `Cc1ncc(-c2ccnc(Nc3ccc(Cl)cc3)n2)n1C(C)C`, the figures for the 50% inhibitory concentration (IC50) in data set [1] and in data set [12] were 72 nM and under 3 nM, respectively.
`COCCS(=O)(=O)N1CCN(c2ccc(Nc3nccc(-c4cnc(C)n4C(C)C)n3)cc2)CC1`: the IC50 in data set [1] is 93 nM; in data set [12] it was under 3 nM.
As to `Cc1ncc(-c2ccnc(Nc3ccc(N4CCN(C(=O)CN(C)C)CC4)cc3)n2)n1C(C)C`, the results for the IC50 in data set [11], in data set [1] and in data set [12] were over 32000 nM, under 27 nM and 16 nM, respectively. The solubility in data set [13] is over 3400 µM. In data set [14], this compound displayed a logD of 3.3. Besides, the fraction unbound in [10] stood at 0.4.
With `Cc1ncc(-c2ccnc(Nc3ccc(C#N)cc3)n2)n1C(C)C`, the figures for the IC50 in data set [1] and in data set [12] were 70 nM and under 3 nM, respectively.
`Cc1ncc(-c2ccnc(Nc3ccc(N4CCN(S(=O)(=O)CCN(C)C)CC4)cc3)n2)n1C(C)C`: the IC50 in [11] was 18000 nM; in data set [1], under 39 nM; in [12], 3 nM. Besides, the logD in data set [14] stood at 2.5.
With `Cc1ncc(-c2ccnc(Nc3ccc(N4CCOCC4)cc3)n2)n1C(C)C`, the IC50 is 290 nM in data set [1] and 9 nM in data set [12]. Moreover, the solubility in data set [13] is 56 µM (≈ 21.2 µg/mL). Moreover, the logD in [14] came to 2.9. Besides, in data set [8], the AUC was found to be 0.16 µM·h.
On to `CC(=O)NC1CN(c2ccc(Nc3ncc(F)c(-c4cnc(C)n4C(C)C)n3)cc2)C1`, for which the IC50 in data set [12] stood at 0.5 nM. Besides, the concentration in solution in [13] (solubility) was 120 µM (≈ 50.8 µg/mL). The logD in data set [14] is 2.8. In addition, the fraction unbound in data set [10] was 0.05.
